In patent US6737383B1, “Herbicidal oxadiazolidines” (priority 1999, dated 2004):

Experiments:
crabgrass = assay: Test B pre/postemergence crabgrass; assay type: in vivo, Digitaria sanguinalis
Procedure, shortened: (§1)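 Response is a visual 0-to-10 score relative to untreated plants, where 0 means no effect and 10 means complete control, taken twelve to sixteen days after application. Treatments went onto soil at planting and onto foliage of 1- to 4-leaf plants, using a surfactant-containing non-phytotoxic solvent.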

soybean = assay: Test B pre/postemergence soybean; assay type: in vivo, Glycine max
Procedure, shortened: as §1

wheat = assay: Test B pre/postemergence wheat; assay type: in vivo, Triticum aestivum
Procedure, shortened: as §1

wild oat = assay: Test B pre/postemergence wild oat; assay type: in vivo, Avena fatua
Procedure, shortened: as §1

smallflower flatsedge = assay: Test B flood test smallflower flatsedge; assay type: in vivo, Cyperus difformis
Procedure, shortened: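 Each value is a visual injury score relative to controls, with 10 meaning complete control and 0 no effect. Evaluation took place twelve to sixteen days after the 2-leaf-stage plants were treated and kept in the greenhouse.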

[1] = Postemergence, Rate 125 g/ha, scale of 0 to 10 where 0 is no effect and 10 is complete control
[2] = Preemergence, Rate 62 g/ha, scale 0 to 10 (0 no effect, 10 complete control)
[3] = Preemergence, Rate 125 g/ha, 0 is no effect, 10 is complete control
[4] = Preemergence, Rate 250 g/ha, scale 0 to 10, 0 is no effect, 10 is complete control
[5] = Preemergence, Rate 500 g/ha, scale 0 to 10 (0 no effect, 10 complete control)
[6] = Rate 62 g/ha, Postemergence, scale of 0 to 10 where 0 is no effect and 10 is complete control
[7] = Rate 250 g/ha, Postemergence, scale 0 to 10, 0 is no effect, 10 is complete control
[8] = Rate 500 g/ha, Postemergence, scale 0 to 10

Structure (SMILES): CC(C)c1noc(C(C)C)c1-n1c(=O)on(C(=O)N(c2ccc(F)cc2)C(C)C)c1=O [Compound 135]
- Crabgrass plant response rating (crabgrass; [1]): 0
- Crabgrass plant response rating (crabgrass; [2]): 0
- Crabgrass plant response rating (0 to 10 scale) (crabgrass; [3]): 0
- Crabgrass plant response rating (crabgrass; [4]): 0
- Crabgrass plant response rating (crabgrass; [5]): 4
- Crabgrass plant response rating (crabgrass; [6]): 0
- Plant response rating, Crabgrass (crabgrass; [7]): 0
- Soybean plant response rating (soybean; [1]): 2
- Soybean plant response rating (soybean; [2]): 0
- Soybean plant response rating (0 to 10 scale) (soybean; [3]): 0
- Soybean plant response rating (soybean; [4]): 0
- Soybean plant response rating (soybean; [5]): 0
- Soybean plant response rating (soybean; [6]): 2
- Plant response rating, Soybean (soybean; [7]): 3
- Soybean plant response rating (soybean; [8]): 3
- Wheat plant response rating (wheat; [1]): 0
- Wheat plant response rating (wheat; [2]): 0
- Wheat plant response rating (0 to 10 scale) (wheat; [3]): 0
- Wheat plant response rating (wheat; [4]): 0
- Wheat plant response rating (wheat; [5]): 0
- Wheat plant response rating (wheat; [6]): 0
- Plant response rating, Wheat (wheat; [7]): 0
- Wheat plant response rating (wheat; [8]): 0
- Wild oats plant response rating (wild oat; [1]): 0
- Wild oats plant response rating (wild oat; [2]): 0
- Wild oats plant response rating (0 to 10 scale) (wild oat; [3]): 0
- Wild oats plant response rating (wild oat; [4]): 0
- Wild oats plant response rating (wild oat; [5]): 0
- Wild oats plant response rating (wild oat; [6]): 0
- Plant response rating, Wild oats (wild oat; [7]): 0
- Wild oats plant response rating (wild oat; [8]): 0
- S. Flatsedge plant response rating (smallflower flatsedge; Postemergence (flood test species), Rate 125 g/ha, scale of 0 to 10 where 0 is no effect and 10 is complete control): 0
- S. Flatsedge plant response rating (smallflower flatsedge; Rate 62 g/ha, Postemergence section, flood test species, scale of 0 to 10 where 0 is no effect and 10 is complete control): 0
- Plant response rating, S. Flatsedge (smallflower flatsedge; Rate 250 g/ha, Postemergence (flood test), scale 0 to 10, 0 is no effect, 10 is complete control): 0
- S. Flatsedge plant response rating (smallflower flatsedge; Rate 500 g/ha, listed under Postemergence (flood test species), scale 0 to 10): 0
